What was measured:
[1] = system: surinam grass; test: Test B pre/postemergence surinam grass; format: in vivo, Brachiaria decumbens
Outline: (§1)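 Test chemicals in a non-phytotoxic solvent mixture with surfactant were sprayed preemergence onto planted seeds and postemergence onto plants 2 to 18 cm tall (1- to 4-leaf stage). After twelve to sixteen days in a greenhouse, injury was visually rated against untreated controls from 0 (no effect) to 10 (complete control).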

[2] = system: soybean; test: Test B pre/postemergence soybean; format: in vivo, Glycine max
Outline: as §1

[3] = system: crabgrass; test: Test B pre/postemergence crabgrass; format: in vivo, Digitaria sanguinalis
Outline: as §1

[4] = system: wild oat; test: Test B pre/postemergence wild oat; format: in vivo, Avena fatua
Outline: as §1

[5] = system: wheat; test: Test B pre/postemergence wheat; format: in vivo, Triticum aestivum
Outline: as §1

[6] = system: cocklebur; test: Test B pre/postemergence cocklebur; format: in vivo, Xanthium strumarium
Outline: as §1

[7] = system: purple nutsedge; test: Test B pre/postemergence purple nutsedge; format: in vivo, Cyperus rotundus
Outline: as §1

[8] = system: pigweed; test: Test B pre/postemergence pigweed; format: in vivo, Amaranthus retroflexus
Outline: as §1

[9] = system: sugar beet; test: Test B pre/postemergence sugar beet; format: in vivo, Beta vulgaris
Outline: as §1

[10] = system: morningglory; test: Test B pre/postemergence morningglory; format: in vivo, Ipomoea hederacea
Outline: as §1

[11] = system: corn; test: Test B pre/postemergence corn; format: in vivo, Zea mays
Outline: as §1

[12] = system: velvetleaf; test: Test B pre/postemergence velvetleaf; format: in vivo, Abutilon theophrasti
Outline: as §1

[13] = system: giant foxtail; test: Test B pre/postemergence giant foxtail; format: in vivo, Setaria faberii
Outline: as §1

[14] = system: bedstraw; test: Test B pre/postemergence bedstraw; format: in vivo, Galium aparine
Outline: as §1

[15] = system: blackgrass; test: Test B pre/postemergence blackgrass; format: in vivo, Alopecurus myosuroides
Outline: as §1

[16] = system: rape; test: Test B pre/postemergence rape; format: in vivo, Brassica napus
Outline: as §1

[17] = Postemergence, Rate 62 g/ha, scale 0 to 10, 0 is no effect, 10 is complete control
[18] = Postemergence, Rate 125 g/ha, scale of 0 to 10 where 0 is no effect and 10 is complete control
[19] = Preemergence, Rate 250 g/ha, scale 0 (no effect) to 10 (complete control)
[20] = Rate 125 g/ha, Preemergence, scale 0 to 10 (0 no effect, 10 complete control)
[21] = Rate 250 g/ha, Postemergence, scale 0 to 10, 0 is no effect, 10 is complete control
[22] = Rate 500 g/ha, Preemergence, scale 0 to 10 (0 no effect, 10 complete control)
[23] = Postemergence, Rate 500 g/ha, scale 0 (no effect) to 10 (complete control)
[24] = Rate 62 g/ha, Preemergence, scale 0 to 10

COC1CCC(Cn2c(=O)on(C(=O)N(c3ccc(F)cc3)C(C)C)c2=O)=NO1 (centres unmarked) [Compound 766]
10: B. signalgrass plant response rating [1, 19] | B. signalgrass plant response rating [1, 22] | Crabgrass plant response rating [3, 19] | Crabgrass plant response rating [3, 22] | Wild oats plant response rating [4, 22] | Wheat plant response rating [5, 22] | Redroot pigweed plant response rating [8, 20] | Redroot pigweed plant response rating [8, 22] | Velvetleaf plant response rating [12, 22] | Giant foxtail plant response rating [13, 22] | Bedstraw plant response rating [14, 19]
7: Wild oats plant response rating [4, 20] | Blackgrass plant response rating [15, 20]
8: B. signalgrass plant response rating [1, 20] | B. signalgrass plant response rating [1, 21] | Redroot pigweed plant response rating [8, 23] | Giant foxtail plant response rating [13, 18] | Blackgrass plant response rating [15, 19]
5: Nutsedge plant response rating [7, 23] | Plant response rating, Redroot pigweed [8, 17] | Velvetleaf plant response rating [12, 23] | Velvetleaf plant response rating [12, 24] | Velvetleaf plant response rating [12, 20] | Blackgrass plant response rating [15, 18] | Rape plant response rating [16, 20]
6: B. signalgrass plant response rating ([1]; Rate 62 g/ha, Preemergence, scale 0 (no effect) to 10 (complete control)) | Crabgrass plant response rating [3, 18] | Crabgrass plant response rating [3, 21] | Cocklebur plant response rating [6, 23] | Redroot pigweed plant response rating [8, 18] | Redroot pigweed plant response rating [8, 21] | Sugarbeets plant response rating [9, 20] | Blackgrass plant response rating [15, 21]
4: Soybean plant response rating [2, 23] | Soybean plant response rating [2, 21] | Wheat plant response rating [5, 20] | Nutsedge plant response rating [7, 22] | Corn plant response rating [11, 23] | Corn plant response rating [11, 21] | Bedstraw plant response rating [14, 24]
3: Wild oats plant response rating [4, 24] | Wheat plant response rating [5, 23] | Wheat plant response rating [5, 21] | Nutsedge plant response rating [7, 18] | Morningglory plant response rating [10, 20] | Morningglory plant response rating [10, 22] | Corn plant response rating [11, 22] | Velvetleaf plant response rating [12, 21] | Bedstraw plant response rating [14, 23]
0: Plant response rating, B. signalgrass [1, 17] | Soybean plant response rating [2, 24] | Soybean plant response rating [2, 20] | Soybean plant response rating [2, 22] | Plant response rating, Wild oats [4, 17] | Plant response rating, Wheat [5, 17] | Wheat plant response rating [5, 24] | Plant response rating, Cocklebur [6, 17] | Cocklebur plant response rating [6, 18] | Cocklebur plant response rating [6, 24] | Cocklebur plant response rating [6, 20] | Cocklebur plant response rating [6, 22] | Plant response rating, Nutsedge [7, 17] | Nutsedge plant response rating [7, 24] | Nutsedge plant response rating [7, 20] | Plant response rating, Sugarbeets [9, 17] | Plant response rating, Corn [11, 17] | Corn plant response rating [11, 18] | Corn plant response rating [11, 19] | Corn plant response rating [11, 24] | Corn plant response rating [11, 20] | Plant response rating, Velvetleaf [12, 17] | Plant response rating, Giant foxtail [13, 17] | Plant response rating, Bedstraw [14, 17] | Bedstraw plant response rating [14, 18] | Bedstraw plant response rating [14, 21] | Plant response rating, Blackgrass [15, 17] | Blackgrass plant response rating [15, 24] | Plant response rating, Rape [16, 17] | Rape plant response rating [16, 18] | Rape plant response rating [16, 23] | Rape plant response rating [16, 21]
2: B. signalgrass plant response rating [1, 18] | Plant response rating, Soybean [2, 17] | Plant response rating, Crabgrass [3, 17] | Wild oats plant response rating [4, 23] | Wild oats plant response rating [4, 21] | Cocklebur plant response rating [6, 21] | Sugarbeets plant response rating [9, 23] | Sugarbeets plant response rating [9, 24] | Sugarbeets plant response rating [9, 21] | Plant response rating, Morningglory [10, 17] | Morningglory plant response rating [10, 18] | Morningglory plant response rating [10, 23] | Morningglory plant response rating [10, 24] | Morningglory plant response rating [10, 21] | Rape plant response rating [16, 24]
9: Crabgrass plant response rating [3, 23] | Crabgrass plant response rating [3, 24] | Crabgrass plant response rating [3, 20] | Redroot pigweed plant response rating [8, 24] | Sugarbeets plant response rating [9, 22] | Giant foxtail plant response rating [13, 23] | Giant foxtail plant response rating [13, 19] | Giant foxtail plant response rating [13, 24] | Giant foxtail plant response rating [13, 20] | Giant foxtail plant response rating [13, 21] | Bedstraw plant response rating [14, 20] | Bedstraw plant response rating [14, 22] | Blackgrass plant response rating [15, 22] | Rape plant response rating [16, 22]
